The results in this text go back to patent US8404708B2, “Dual NK1/NK3 receptor antagonists” (Hoffmann-La Roche Inc., priority 2004, dated 2013).

pKi: −log10 of the molar value. Like-named read-outs stand apart in the source and are kept apart here.

The target of test [1] is T1, Recombinant human NK3 (hNK3) receptor (Homo sapiens, UniProt P29371).
T1 construct: expressed in transfected cells
T1 sequence (P29371 1-465): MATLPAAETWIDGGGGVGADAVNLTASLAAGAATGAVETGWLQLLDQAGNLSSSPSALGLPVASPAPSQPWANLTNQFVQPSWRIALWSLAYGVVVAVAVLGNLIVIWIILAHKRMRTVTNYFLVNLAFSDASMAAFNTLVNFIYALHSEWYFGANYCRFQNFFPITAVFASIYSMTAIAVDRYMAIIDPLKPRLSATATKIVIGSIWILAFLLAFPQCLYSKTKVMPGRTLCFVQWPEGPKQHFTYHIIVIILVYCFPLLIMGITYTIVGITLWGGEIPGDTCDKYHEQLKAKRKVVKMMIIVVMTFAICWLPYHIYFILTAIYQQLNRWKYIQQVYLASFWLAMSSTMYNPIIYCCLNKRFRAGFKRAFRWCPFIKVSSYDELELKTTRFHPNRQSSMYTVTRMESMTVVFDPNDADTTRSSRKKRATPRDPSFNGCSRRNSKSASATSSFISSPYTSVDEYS
Description: NK3 receptor binding, [3H]SR142801 displacement, membrane preparations. To be noted: for pKi: second value of the cell pKi NK1/NK3, hNK3 receptor, [3H]SR142801; for Ki: second value of the cell NK1/NK3, read-out: pKi NK3 (converted). In short, it runs like this: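 Room-temperature, 90-min filtration binding assay using about 2.5 μg recombinant receptor membranes per well; separation on polyethyleneimine-treated glass-fibre (GF/C) filters and liquid scintillation read-out, with 10 μM SB222200 for nonspecific binding.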

Another test deals with human NK1 receptor (Homo sapiens, UniProt P25103). Description: NK1 receptor binding, [3H]substance P displacement, CHO cell membranes. To be noted: for pKi: first value of the cell pKi NK1/NK3, human NK1 receptor, [3H]substance P; for Ki: first value of the cell NK1/NK3, read-out: pKi NK1 (converted).
Sequence of human NK1 receptor (P25103 whole entry): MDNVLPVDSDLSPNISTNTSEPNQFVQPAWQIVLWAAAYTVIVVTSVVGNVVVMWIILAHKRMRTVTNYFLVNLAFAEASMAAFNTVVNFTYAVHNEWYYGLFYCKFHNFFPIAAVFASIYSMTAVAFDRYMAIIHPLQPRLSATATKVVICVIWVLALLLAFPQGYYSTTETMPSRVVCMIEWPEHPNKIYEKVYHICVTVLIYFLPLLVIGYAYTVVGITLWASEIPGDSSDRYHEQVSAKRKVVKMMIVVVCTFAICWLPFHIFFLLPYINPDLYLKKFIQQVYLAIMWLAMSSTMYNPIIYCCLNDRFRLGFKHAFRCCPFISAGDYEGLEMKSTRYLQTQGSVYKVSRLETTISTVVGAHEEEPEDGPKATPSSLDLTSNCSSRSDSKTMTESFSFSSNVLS

Take `Cc1cc(F)ccc1-c1cc(N2CCC[C@H]2CO)ncc1N(C)C(=O)C(C)(C)c1cc(Cl)cc(OC(F)F)c1` [Example 38, (S)-2-(3-Chloro-5-difluoromethoxy-phenyl)-N-[4-(4-fluoro-2-methyl-phenyl)-6-(2-hydroxymethyl-pyrrolidin-1-yl)-pyridin-3-yl]-N-methyl-isobutyramide]: the pKi in test [1] is 8.65; on human NK1 receptor, 8.45.
For `CN(C(=O)C(C)(C)c1cc(C(F)(F)F)cc(C(F)(F)F)c1)c1cnc(N2C[C@H](O)C[C@H]2CO)cc1-c1cccc(Cl)c1` [Example 206, (2S,4R)-2-(3,5-Bis-trifluoromethyl-phenyl)-N-[4-(3-chloro-phenyl)-6-(4-hydroxy-2-hydroxymethyl-pyrrolidin-1-yl)-pyridin-3-yl]-N-methyl-isobutyramide] the same measures were 7.80 and 8.73.
With `Cc1c(F)cccc1-c1cc(N2C[C@@H](O)C[C@H]2CO)ncc1N(C)C(=O)C(C)(C)c1cc(C(F)(F)F)cc(C(F)(F)F)c1` [Example 249, (2S,4S)-2-(3,5-Bis-trifluoromethyl-phenyl)-N-[4-(3-fluoro-2-methyl-phenyl)-6-(4-hydroxy-2-hydroxymethyl-pyrrolidin-1-yl)-pyridin-3-yl]-N-methyl-isobutyramide], the Ki in test [1] was 1.02 nM; at human NK1 receptor, 2 nM.
On to `Cc1ccccc1-c1cc(N2CCC[C@H]2CO)ncc1N(C)C(=O)C(C)(C)c1cc(Cl)cc(Cl)c1` [Example 11, (S)-2-(3,5-Dichloro-phenyl)-N-[6-(2-hydroxymethyl-pyrrolidin-1-yl)-4-o-tolyl-pyridin-3-yl]-N-methyl-isobutyramide], for which the figures for the pKi (in test [1]; on human NK1 receptor) were 8.96 and 8.75, respectively.
For `Cc1ccccc1-c1cc(N2C[C@H](O)C[C@@H](O)C2)ncc1N(C)C(=O)C(C)(C)c1cc(C(F)(F)F)cc(C(F)(F)F)c1` [Example 179, (3R,5R)-2-(3,5-Bis-trifluoromethyl-phenyl)-N-(3,5-dihydroxy-4′-o-tolyl-3,4,5,6-tetrahydro-2H-[1,2′]bipyridinyl-5′-yl)-N-methyl-isobutyramide] the same measures were 8.39 and 8.82.
Regarding `CN(C(=O)C(C)(C)c1cc(C(F)(F)F)cc(C(F)(F)F)c1)c1cnc(N2CCC(NS(C)(=O)=O)CC2)cc1-c1ccccc1Cl` [Example 113, 2-(3,5-Bis-trifluoromethyl-phenyl)-N-[4′-(2-chloro-phenyl)-4-methanesulfonylamino-3,4,5,6-tetrahydro-2H-[1,2′]bipyridinyl-5′-yl]-N-methyl-isobutyramide], the pKi in test [1] is 8.46; at human NK1 receptor, 8.24.
Turning to `Cc1ccc(F)cc1-c1cc(N2C[C@H](O)C[C@H]2CO)ncc1N(C)C(=O)C(C)(C)c1cc(C(F)(F)F)cc(C(F)(F)F)c1` [Example 227, (2S,4R)-2-(3,5-Bis-trifluoromethyl-phenyl)-N-[4-(5-fluoro-2-methyl-phenyl)-6-(4-hydroxy-2-hydroxymethyl-pyrrolidin-1-yl)-pyridin-3-yl]-N-methyl-isobutyramide], the Ki in test [1] is 1.38 nM; on human NK1 receptor it was 1.1 nM.
Take `COc1cc(Cl)cc(C(C)(C)C(=O)N(C)c2cnc(N3CCC[C@H]3CO)cc2-c2ccccc2Cl)c1` [Example 7, (S)-2-(3-Chloro-5-methoxy-phenyl)-N-[4-(2-chloro-phenyl)-6-(2-hydroxymethyl-pyrrolidin-1-yl)-pyridin-3-yl]-N-methyl-isobutyramide]: the pKi was 8.75 in test [1] and 8.32 on human NK1 receptor.
Consider `CN(C(=O)C(C)(C)c1cc(C(F)(F)F)cc(C(F)(F)F)c1)c1cnc(N2CCC[C@H]2CO)cc1-c1ccccc1Br` [Example 281, (S)-2-(3,5-Bis-trifluoromethyl-phenyl)-N-[4-(2-bromo-phenyl)-6-(2-hydroxymethyl-pyrrolidin-1-yl)-pyridin-3-yl]-N-methyl-isobutyramide], for which the Ki in test [1] is 1.82 nM; at human NK1 receptor, 3.47 nM.
Turning to `CN(C(=O)C(C)(C)c1cc(C(F)(F)F)cc(C(F)(F)F)c1)c1cnc(N2CCC[C@@H](O)[C@H]2CO)cc1-c1ccccc1Cl` (racemic) [Example 195, (2RS,3RS)-2-(3,5-Bis-trifluoromethyl-phenyl)-N-[4′-(2-chloro-phenyl)-3-hydroxy-2-hydroxymethyl-3,4,5,6-tetrahydro-2H-[1,2′]bipyridinyl-5′-yl]-N-methyl-isobutyramide], the pKi in test [1] is 7.54; on human NK1 receptor, 8.74.
On to `CN(C(=O)C(C)(C)c1cc(C(F)(F)F)cc(C(F)(F)F)c1)c1cnc(N2C[C@H](O)C[C@H]2CO)cc1-c1cccc(F)c1` [Example 207, (2S,4R)-2-(3,5-Bis-trifluoromethyl-phenyl)-N-[4-(3-fluoro-phenyl)-6-(4-hydroxy-2-hydroxymethyl-pyrrolidin-1-yl)-pyridin-3-yl]-N-methyl-isobutyramide], for which the Ki was 4.68 nM in test [1] and 1.38 nM at human NK1 receptor.
Turning to `Cc1ccccc1-c1cc(N2C[C@H](O)C[C@H]2CO)ncc1N(C)C(=O)C(C)(C)c1cc(F)cc(F)c1` [Example 16, (2S,4R)-2-(3,5-Difluoro-phenyl)-N-[6-(4-hydroxy-2-hydroxymethyl-pyrrolidin-1-yl)-4-o-tolyl-pyridin-3-yl]-N-methyl-isobutyramide], the results for the pKi (in test [1]; on human NK1 receptor) were 8.39 and 8.58, respectively.
With `CN(C(=O)C(C)(C)c1cc(C(F)(F)F)cc(C(F)(F)F)c1)c1cnc(N2C[C@H](O)C[C@H]2CO)cc1-c1ccc(F)cc1C=O` [Example 222, (2S,4R)-2-(3,5-Bis-trifluoromethyl-phenyl)-N-[4-(4-fluoro-2-formyl-phenyl)-6-(4-hydroxy-2-hydroxymethyl-pyrrolidin-1-yl)-pyridin-3-yl]-N-methyl-isobutyramide], the Ki in test [1] was 1.02 nM; on human NK1 receptor it was 1.05 nM.
Take `CN(C(=O)C(C)(C)c1cc(C(F)(F)F)cc(C(F)(F)F)c1)c1cnc(N2C[C@H](O)C[C@H]2CO)cc1-c1ccc(F)cc1` [Example 202, (2S,4R)-2-(3,5-Bis-trifluoromethyl-phenyl)-N-[4-(4-fluoro-phenyl)-6-(4-hydroxy-2-hydroxymethyl-pyrrolidin-1-yl)-pyridin-3-yl]-N-methyl-isobutyramide]: the pKi in test [1] was 8.13; on human NK1 receptor, 8.92.
For the compound `CN(C(=O)C(C)(C)c1cc(C(F)(F)F)cc(C(F)(F)F)c1)c1cnc(N2C[C@@H](O)C[C@H]2CO)cc1-c1cccnc1Cl` [Example 254, (2S,4S)-2-(3,5-Bis-trifluoromethyl-phenyl)-N-[2-chloro-6′-(4-hydroxy-2-hydroxymethyl-pyrrolidin-1-yl)-[3,4′]bipyridinyl-3′-yl]-N-methyl-isobutyramide], the Ki in test [1] was 3.09 nM; at human NK1 receptor, 0.977 nM.
As for `Cc1ccccc1-c1cc(N2CC[C@H](O)C[C@@H]2CO)ncc1N(C)C(=O)C(C)(C)c1cc(C(F)(F)F)cc(C(F)(F)F)c1` (racemic) [Example 190, (2RS,4SR)-2-(3,5-Bis-trifluoromethyl-phenyl)-N-(4-hydroxy-2-hydroxymethyl-4′-o-tolyl-3,4,5,6-tetrahydro-2H-[1,2′]bipyridinyl-5′-yl)-N-methyl-isobutyramide], the pKi was 8.39 in test [1] and 8.80 on human NK1 receptor.
